pEC50: −log10 of the molar value.
Target: T1, Muscarinic acetylcholine receptor M1 (Homo sapiens, UniProt P11229)
T1 sequence (P11229 whole entry): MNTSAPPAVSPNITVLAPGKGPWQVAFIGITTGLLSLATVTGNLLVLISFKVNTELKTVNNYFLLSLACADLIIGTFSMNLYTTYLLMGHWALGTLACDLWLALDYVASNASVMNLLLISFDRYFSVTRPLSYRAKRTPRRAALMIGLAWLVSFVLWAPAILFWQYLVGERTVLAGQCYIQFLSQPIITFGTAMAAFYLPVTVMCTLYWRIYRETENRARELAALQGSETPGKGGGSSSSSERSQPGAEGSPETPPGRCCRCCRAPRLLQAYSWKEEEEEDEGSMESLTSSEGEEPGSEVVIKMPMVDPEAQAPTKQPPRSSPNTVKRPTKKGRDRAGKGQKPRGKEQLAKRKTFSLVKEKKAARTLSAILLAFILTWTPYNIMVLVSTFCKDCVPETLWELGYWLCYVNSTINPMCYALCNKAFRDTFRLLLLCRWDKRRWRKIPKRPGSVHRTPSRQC
Experiment: Cell-Based Functional Assay of Muscarinic Acetylcholine Receptor: For high throughput measurement of agonist-evoked increases in intracellular calcium, CHO-K1 cells stably expressing muscarinic receptors were plated in growth medium lacking G418 and hygromycin at 15,000 cells/20 μL/well in Greiner 384-well black-walled, tissue culture (TC)-treated, clear-bottom plates (VWR). Cells were incubated overnight at 37° C. and 5% CO2. The next day, cells were washed using an ELX 405 (BioTek) with four washes (80 μL) of assay buffer then aspirated to 20 μL. Next, 20 μL of 16 μM Fluo-4/acetoxymethyl ester (Invitrogen, Carlsbad, Calif.) prepared as a 2.3 mM stock in DMSO and mixed in a 1:1 ratio with 10% (w/v) Pluronic F-127 and diluted in assay buffer was added to the wells and the cell plates were incubated for 50 min at 37° C. and 5% CO2. Dye was removed by washing with the ELX 405 (four 80 μL washes of assay buffer) then aspirated to 20 μL. Compound master plates were formatted in an 11 point CRC format (1:3 dilutions) in 100% DMSO with a starting concentration of 10 mM using the BRAVO liquid handler (Agilent). […]

Cn1cc2cc(-c3cc(F)c(CN4Cc5ccc6nccn6c5C4=O)c(F)c3)ccc2n1
pEC50: 5.00
